Results on three molecules are retold here after patent US9458176B2, “Tetrahydroimidazo(1,5-D)[1,4]oxazepine derivative” (Eisai R&D Management Co., Ltd., priority 2013, dated 2016).

pIC50: −log10 of the molar value.

Experiment [1] concerns the target human mGluR2 (Homo sapiens (Human), UniProt Q14416). The experiment in a line: [35S]GTPγS binding assay (Affinity to mGluR2). The format is biochemical. Conditions: cell membrane fraction of HEK293 cells stably expressing human mGluR2; glutamic acid 10 μM. In outline:
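Membranes from HEK293 cells stably co-expressing human mGluR2 and SLC1A3 (1.8–3 μg protein) preincubated with compound 30 min at RT, then stimulated with 10 μM glutamate 15 min; [35S]GTPγS (0.8 kBq) with WGA-SPA beads 1 h, buffer with 3 μM GDP, 100 mM NaCl, 1 mM MgCl2. IC50 from inhibition of glutamate-specific binding.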
A general note: Binding of GTPγS marks nucleotide exchange on a G protein.

The subject of experiment [2] is Long-Evans rats. Kind of experiment: Novel Object Recognition (NOR) test in rats with scopolamine-induced cognitive impairment. Conditions: male Long-Evans rats, scopolamine 0.3 mg/kg i.p.; statistically significant difference in discrimination index vs scopolamine alone group. The experiment is classed as in vivo, rat. Here is the method: Six-week old male Long-Evans rats were used for this test. For 2 days before starting the test, the rats were acclimated to experimental operations such as administration and a test device (that is, a black or gray plastic cage with a width of 40 cm, a depth of 30 cm and a height of 45 cm). Each test compound was dissolved in a 0.1 N hydrochloric acid to be orally administered. Thirty minutes after the administration, scopolamine hydrobromide was intraperitoneally administered at a 0.3 mg/kg dose, so as to induce cognitive impairment. After another 30 minutes, each rat was acclimated in the test device for 3 minutes, and thereafter, two blocks in the same shape were put in the test device as acquisition trial, and exploring time for each block was measured for 5 minutes. Two hours after the acquisition trial, the rat was acclimated in the test device for 3 minutes, and thereafter, the same block as those used in the acquisition trial and a new block in a different shape were put in the cage for retention trial. The exploring time for each block was measured for 3 minutes, and a ratio of the exploring time for the newly used block to the sum of the exploring times for the respective blocks was calculated as a discrimination index. The thus obtained discrimination indexes were compared among a group of rats to which a medium alone was administered (medium group), a group of rats to which scopolamine alone was administered (scopolamine alone group) and a group of rats to which both the test compound and scopolamine were administered, so as to evaluate the action of the test compound on the novel object recognition function (cognitive function) of the rats.
Each discrimination index was shown as an average and a standard error. The statistical significance between the medium group and the scopolamine alone group was analyzed by the independent t-test. The statistical significance between the scopolamine alone group and each sample group was analyzed by one-way analysis of variance and then by Dunnett's multiple comparison test. The significance level was set to 5% on both sides. […] The analysis was carried out by using Prism 5 for Windows for Japanese, ver. 5.03.
A minimum effective dose at which a statistically significant difference was found between a group suffering from the cognitive impairment induced by scopolamine and a group treated with each compound is shown in Table 10.

human mGluR2, sequence (Q14416 19-872): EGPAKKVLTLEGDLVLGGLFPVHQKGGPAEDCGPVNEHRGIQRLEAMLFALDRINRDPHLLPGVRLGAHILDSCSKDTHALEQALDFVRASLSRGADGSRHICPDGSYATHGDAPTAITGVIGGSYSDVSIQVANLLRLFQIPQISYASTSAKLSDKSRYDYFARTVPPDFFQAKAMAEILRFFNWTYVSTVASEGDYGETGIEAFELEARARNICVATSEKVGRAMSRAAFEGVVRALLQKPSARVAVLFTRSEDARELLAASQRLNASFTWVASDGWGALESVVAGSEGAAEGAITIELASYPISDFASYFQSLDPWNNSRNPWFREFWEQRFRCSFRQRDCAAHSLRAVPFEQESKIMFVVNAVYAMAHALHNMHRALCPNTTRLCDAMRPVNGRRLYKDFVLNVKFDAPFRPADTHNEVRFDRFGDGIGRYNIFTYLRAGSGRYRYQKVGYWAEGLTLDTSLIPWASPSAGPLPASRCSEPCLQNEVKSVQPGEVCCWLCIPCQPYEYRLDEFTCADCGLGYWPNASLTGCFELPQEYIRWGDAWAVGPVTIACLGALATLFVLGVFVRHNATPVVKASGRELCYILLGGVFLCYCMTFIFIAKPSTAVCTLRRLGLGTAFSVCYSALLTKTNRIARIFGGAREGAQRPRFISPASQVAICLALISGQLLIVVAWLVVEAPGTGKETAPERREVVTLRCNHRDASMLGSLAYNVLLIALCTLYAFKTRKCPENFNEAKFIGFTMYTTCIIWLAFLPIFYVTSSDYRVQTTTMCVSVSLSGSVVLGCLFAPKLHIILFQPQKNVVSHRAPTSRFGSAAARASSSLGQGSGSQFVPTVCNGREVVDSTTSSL

On to `COc1cc(-c2nc(-c3ccnc(C)c3)c3n2C[C@@H](C)OCC3)ccc1OC(F)(F)F` [Example 24, (R)-3-(3-methoxy-4-(trifluoromethoxy)phenyl)-6-methyl-1-(2-methylpyridin-4-yl)-5,6,8,9-tetrahydroimidazo[1,5-d][1,4]oxazepine], for which the pIC50 (commonly the negative decadic logarithm of the IC50, by convention in mol/L) in experiment [1] is 8.32. In addition, the Minimum effective dose in experiment [2] is reported as 1 mg/kg, p.o.
The molecule `COc1cc(-c2nc(-c3cc(C)nc(C)c3)c3n2CCOCC3)ccc1Cl` [Example 44] showed a negative logarithm of the IC50 (pIC50) in experiment [1] of 7.65. Also, in experiment [2], the Minimum effective dose is given as 1 mg/kg, p.o.
For the molecule `Cc1cc(-c2nc(-c3ccc(Cl)c(F)c3)n3c2CCO[C@H](C)C3)cc(CF)n1` [Example 87], the pIC50 in experiment [1] was 7.66. In addition, in experiment [2], the Minimum effective dose is 3 mg/kg, p.o.
